# Results reported in patent US9163021B2, “Pyrrolo[3,2-c]pyridine tropomyosin-related kinase inhibitors” (Pfizer Limited, priority 2012, dated 2015).
# Target: TRKA (Homo sapiens (Human), UniProt P04629)
# Experiment: Isolated TRK enzyme assay (HTRF KinEASE-TK), PV3144 TrkA enzyme assay
# Assay type: biochemical
# Details: arithmetic mean where more than one reading
# Protocol: Isolated TRK Enzyme assays use the HTRF KinEASE-TK kit (Cisbio Cat#62TK0PEJ) with recombinant His-tagged cytoplasmic domains of each TRK receptor sourced from Invitrogen (see table below). This activity-assay measures the phosphorylation of tyrosine residues within a substrate from the HTRF kit which has been validated by Cisbio for a variety of tyrosine kinases including the TRK receptors.
# 0.5 mM stock solutions of test compounds are prepared and serially diluted in 100% DMSO. A standard curve using the compound of Example 135 disclosed in WO2005/116035 of 150 uM is also prepared on each test plate. High percentage effect (HPE) is defined by 150 uM (using the compound of Example 135 as disclosed in WO2005/116035) and 0% effect (ZPE) is defined by 100% DMSO. Greiner low volume black plates containing 0.2 ul of serially diluted compound, standard and HPE/ZPE are created using the Bravo nanoliter dispenser.
# 1× enzyme buffer is prepared from 5× Enzymatic Buffer from the Cisbio KinEASE TK kit using MilliQ water. The buffer is then supplemented with 10 mM MgCI and 2 mM DTT (both from Sigma). In the case of TRKB, the buffer is also supplemented with 125 nM Supplement Enzymatic Buffer (SEB) from the Cisbio kit.
# 2× FAC of enzyme and 2× FAC ATP diluted in 1× complete enzyme buffer is incubated at room temperature for 20 minutes to preactivate the enzyme. Following this preactivation step, 5 ul/well of enzyme+ATP mix is added using a Multidrop Micro to the assay plate, spotted with 0.2 ul 100% DMSO compound. This is left for 20 mins at room temperature before adding 5 ul of 2 uM TK-substrate-Biotin (from the Cisbio kit) diluted in 1× enzyme buffer (1 uM FAC) using the Multidrop Micro. The reaction is incubated at room temperature for the optimized assay reaction time (see table). The reaction is stopped by adding 10 ul/well HTRF Detection Buffer containing 0.25 uM Streptavidin-XL665 (0.125 uM FAC) and 1:200 TK Antibody-Cryptate using a Multidrop.
# After the Detection Reagent addition, plates are covered and incubated at room temperature for 60 minutes. HTRF signal is read using an Envision reader, measured as a ratio of emissions at two different wavelengths, 620 nm and 665 nm. […] Test compound data are expressed as percentage inhibition defined by HPE and ZPE values for each plate. Percentage inhibition in the presence of test compound is plotted against compound concentration on a log scale to determine an IC50 from the resultant sigmoid curve.
# Where more than one reading was taken, the arithmetic mean is presented.
# Chain of TRKA (P04629 441-796): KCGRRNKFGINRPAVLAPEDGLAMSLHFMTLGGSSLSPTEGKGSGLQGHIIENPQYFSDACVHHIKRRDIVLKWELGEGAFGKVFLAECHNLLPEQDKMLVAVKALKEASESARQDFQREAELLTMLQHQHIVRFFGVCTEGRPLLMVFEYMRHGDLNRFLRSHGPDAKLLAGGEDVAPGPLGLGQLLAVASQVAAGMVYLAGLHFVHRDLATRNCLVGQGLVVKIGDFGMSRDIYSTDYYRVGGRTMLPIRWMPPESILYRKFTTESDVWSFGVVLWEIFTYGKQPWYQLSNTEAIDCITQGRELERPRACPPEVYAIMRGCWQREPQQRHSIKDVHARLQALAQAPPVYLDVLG
row,IC50,Structure (SMILES)
1,0.00966 µM,"CC(C)n1cc(C(=O)c2cncc(NC(=O)Cn3cc(C(F)(F)F)cn3)c2)c2cncc(F)c21 [Example 31, N-(5-{[7-fluoro-1-(propan-2-yl)-1H-pyrrolo[3,2-c]pyridin-3-yl]carbonyl}pyridin-3-yl)-2[4-(trifluoromethyl)-1H-pyrazol-1-yl]acetamide]"
2,0.707 µM,"CC(C)n1cc(C(=O)c2cncc(NC(=O)Cc3cccc(Cl)c3)c2)c2cnccc21 [Example 125, 2-(3-chlorophenyl)-N-(5-{[1-(propan-2-yl)-1H-pyrrolo[3,2-c]pyridin-3-yl]carbonyl}pyridin-3-yl)acetamide]"
3,1.08 µM,"CC(C)n1cc(C(=O)c2ccnc(NC(=O)Cc3ccon3)c2)c2cnccc21 [Example 180, 2-(1,2-oxazol-3-yl)-N-(4-{[1-(propan-2-yl)-1H-pyrrolo[3,2-c]pyridin-3-yl]carbonyl}pyridin-2-yl)acetamide]"
4,3.33 µM,"CC(C)n1cc(C(=O)c2cncc(NC(=O)Cc3cn(C)cn3)c2)c2cnccc21 [Example 41, 2-(1-methyl-1H-imidazol-4-yl)-N-(5-{[1-(propan-2-yl)-1H-pyrrolo[3,2-c]pyridin-3-yl]carbonyl}pyridin-3-yl)acetamide]"
5,0.0928 µM,"Cc1cc(C)n(CC(=O)Nc2cncc(C(=O)c3cn(C(C)C)c4ccncc34)c2)n1 [Example 131, 2-(3,5-dimethyl-1H-pyrazol-1-yl)-N-(5-{[1-(propan-2-yl)-1H-pyrrolo[3,2-c]pyridin-3-yl]carbonyl}pyridin-3-yl)acetamide]"
6,0.00616 µM,"CC(C)n1cc(C(=O)c2ccnc(NC(=O)Cc3ccc(Cl)cn3)c2)c2cnccc21 [Example 82, 2-(5-chloropyridin-2-yl)-N-(4-{[1-(propan-2-yl)-1H-pyrrolo[3,2-c]pyridin-3-yl]carbonyl}pyridin-2-yl)acetamide]"
7,0.0204 µM,"Cc1cc(C(C)C)nn1CC(=O)Nc1cc(C(=O)c2cn(C(C)C)c3ccncc23)ccn1 [Example 113, 2-[5-methyl-3-(propan-2-yl)-1H-pyrazol-1-yl]-N-(4-{[1-(propan-2-yl)-1H-pyrrolo[3,2-c]pyridin-3-yl]carbonyl}pyridin-2-yl)acetamide]"
8,0.0244 µM,"CC(C)n1cc(C(=O)c2ccnc(NC(=O)Cc3ccc(C#N)c(C(F)(F)F)c3)c2)c2cnccc21 [Example 233, 2-[4-cyano-3-(trifluoromethyl)phenyl]-N-(4-{[1-(propan-2-yl)-1H-pyrrolo[3,2-c]pyridin-3-yl]carbonyl}pyridin-2-yl)acetamide]"
9,0.0278 µM,"CC(CO)n1cc(C(=O)c2cncc(NC(=O)Cc3ccc(Cl)cc3)c2)c2cncc(F)c21 (single isomer, unassigned) [Example 223, 2-(4-chlorophenyl)-N-(5-{[7-fluoro-1-(1-hydroxypropan-2-yl)-1H-pyrrolo[3,2-c]pyridin-3-yl]carbonyl}pyridin-3-yl)acetamide]"
10,0.147 µM,"CC(C)n1cc(C(=O)c2cncc(NC(=O)Cn3cc(C(F)(F)F)nn3)c2)c2cnccc21 [Example 38, N-(5-{[1-(propan-2-yl)-1H-pyrrolo[3,2-c]pyridin-3-yl]carbonyl}pyridin-3-yl)-2[4-(trifluoromethyl)-1H-1,2,3-triazol-1-yl]acetamide]"
11,0.176 µM,"CC(C)n1cc(C(=O)c2cc(NC(=O)Cc3ccc(C#N)cc3)ccn2)c2cnccc21 [Example 54, 2-(4-cyanophenyl)-N-(2-{[1-(propan-2-yl)-1H-pyrrolo[3,2-c]pyridin-3-yl]carbonyl}pyridin-4-yl)acetamide]"
12,0.198 µM,"CC(C)c1ccnn1CC(=O)Nc1cncc(C(=O)c2cn(C(C)C)c3ccncc23)c1 [Example 124, 2-(5-(propan-2-yl)-1H-pyrazol-1-yl]-N-(5-{[1-(propan-2-yl)-1H-pyrrolo[3,2-c]pyridin-3-yl]carbonyl}pyridin-3-yl)acetamide]"
13,0.268 µM,"Cc1cc(CC(=O)Nc2cncc(C(=O)c3cn(C(C)C)c4ccncc34)c2)[nH]n1 [Example 136, 2(3-methyl-1H-pyrazol-5-yl)-N-(5-{[1-(propan-2-yl)-1H-pyrrolo[3,2-c]pyridin-3-yl]carbonyl}pyridin-3-yl)acetamide]"
14,0.0233 µM,"CC(C)n1cc(C(=O)c2cc(NC(=O)Cc3ccc(Cl)cc3)ccn2)c2cncc(F)c21 [Example 85, 2-(4-chlorophenyl)-N-(2-{[7-fluoro-1-(propan-2-yl)-1H-pyrrolo[3,2-c]pyridin-3-yl]carbonyl}pyridin-4-yl)acetamide]"
15,0.0429 µM,"CC(C)n1cc(C(=O)c2ccnc(NC(=O)Cn3cc(Cl)cn3)c2)c2cnccc21 [Example 99, 2-(4-chloro-1H-pyrazol-1-yl)-N-(4-{[1-(propan-2-yl)-1H-pyrrolo[3,2-c]pyridin-3-yl]carbonyl}pyridin-2-yl)acetamide]"
16,0.186 µM,"CC(C)c1cn(CC(=O)Nc2cc(C(=O)c3cn(C4COC4)c4ccncc34)ccn2)nn1 [Example 199, N-(4-{[1-(oxetan-3-yl)-1H-pyrrolo[3,2-c]pyridin-3-yl]carbonyl}pyridin-2-yl)-2-[4-(propan-2-yl)-1H-1,2,3-triazol-1-yl]acetamide]"
17,0.138 µM,"N#Cc1ccc(CC(=O)Nc2cc(C(=O)c3cn(C4COC4)c4ccncc34)ccn2)cc1C(F)(F)F [Example 221, 2-[4-cyano-3-(trifluoromethyl)phenyl]-N-(4-{[1-(oxetan-3-yl)-1H-pyrrolo[3,2-c]pyridin-3-yl]carbonyl}pyridin-2-yl)acetamide]"
18,0.0594 µM,"O=C(Cc1ccc(Cl)cc1)Nc1cc(C(=O)c2cn(CCO)c3ccncc23)ccn1 [Example 146, 2-(4-chlorophenyl)-N-(4-{[1-(2-hydroxyethyl)-1H-pyrrolo[3,2-c]pyridin-3-yl]carbonyl}pyridin-2-yl)acetamide]"
19,0.179 µM,"CC(C)n1cc(C(=O)c2cncc(NC(=O)Cc3nc(C(C)(C)C)nn3C)c2)c2cnccc21 [Example 42, 2-(3-tert-butyl-1-methyl-1H-1,2,4-triazol-5-yl)-N-(5-{[1-(propan-2-yl)-1H-pyrrolo[3,2-c]pyridin-3-yl]carbonyl}pyridin-3-yl)acetamide]"
20,0.0398 µM,"CC(C)(CO)n1cc(C(=O)c2cncc(NC(=O)Cc3ccc(C#N)cc3)c2)c2cncc(F)c21 [Example 92, 2-(4-cyanophenyl)-N-(5-{[7-fluoro-1-(1-hydroxy-2-methylpropan-2-yl)-1H-pyrrolo[3,2-c]pyridin-3-yl]carbonyl}pyridin-3-yl)acetamide]"
21,0.137 µM,"CC(C)n1cc(C(=O)c2cc(NC(=O)Cn3cc(C4CC4)nn3)ccn2)c2cnccc21 [Example 52, 2-(4-cyclopropyl-1H-1,2,3-triazol-1-yl)-N-(2-{[1-(propan-2-yl)-1H-pyrrolo[3,2-c]pyridin-3-yl]carbonyl}pyridin-4-yl)acetamide]"
22,0.305 µM,"O=C(Cc1ccc(F)cc1F)Nc1cc(C(=O)c2cn(CCO)c3ccncc23)ccn1 [Example 145, 2-(2,4-difluorophenyl)-N-(4-{[1-(2-hydroxyethyl)-1H-pyrrolo[3,2-c]pyridin-3-yl]carbonyl}pyridin-2-yl)acetamide]"
23,0.201 µM,"CC(CO)n1cc(C(=O)c2cncc(NC(=O)Cc3ccc(F)cn3)c2)c2cnccc21 (single isomer, unassigned) [Example 68, 2-(5-fluoropyridin-2-yl)-N-(5-{[1-(1-hydroxypropan-2-yl)-1H-pyrrolo[3,2-c]pyridin-3-yl]carbonyl}pyridin-3-yl)acetamide]"
24,0.192 µM,"CC(C)n1cc(C(=O)c2cncc(NC(=O)Cc3ccc(F)cn3)c2)c2cnccc21 [Example 23, 2-(5-fluoropyridin-2-yl)-N-(5-{[1-(propan-2-yl)-1H-pyrrolo[3,2-c]pyridin-3-yl]carbonyl}pyridin-3-yl)acetamide]"
25,0.0337 µM,"Cc1cc(C(F)(F)F)nn1CC(=O)Nc1cncc(C(=O)c2cn(C(C)CO)c3ccncc23)c1 (single isomer, unassigned) [Example 77, N-(5-{[1-(1-hydroxypropan-2-yl)-1H-pyrrolo[3,2-c]pyridin-3-yl]carbonyl}pyridin-3-yl)-2-[5-methyl-3-(trifluoromethyl)-1H-pyrazol-1-yl]acetamide]"
26,0.042 µM,"CC(C)n1cc(C(=O)c2cncc(NC(=O)Cc3ccc(F)cc3)c2)c2cnccc21 [Example 115, 2-(4-fluorophenyl)-N-(5-{[1-(propan-2-yl)-1H-pyrrolo[3,2-c]pyridin-3-yl]carbonyl}pyridin-3-yl)acetamide]"

row,Structure (SMILES),IC50
1,"CC(CO)n1cc(C(=O)c2cncc(NC(=O)Cc3cccc(C(F)(F)F)c3)c2)c2cnccc21 (single isomer, unassigned) [Example 36, N-(5-{[1-(1-hydroxypropan-2-yl)-1H-pyrrolo[3,2-c]pyridin-3-yl]carbonyl}pyridin-3-yl)-2-[3-(trifluoromethyl)phenyl]acetamide]",0.0447 µM
